Source: US11040981B2, “Pyrrolotriazine compounds and methods of inhibiting TAM kinases” (Syros Pharmaceuticals, Inc., priority 2017, dated 2021)

Legend:
[1] = biological target: T1, AXL (Homo sapiens, UniProt P30530); experiment: TR-FRET kinase activity assay, AXL; format: biochemical; conditions: ATP at Km, 60 minutes
T1 sequence (P30530 26-894): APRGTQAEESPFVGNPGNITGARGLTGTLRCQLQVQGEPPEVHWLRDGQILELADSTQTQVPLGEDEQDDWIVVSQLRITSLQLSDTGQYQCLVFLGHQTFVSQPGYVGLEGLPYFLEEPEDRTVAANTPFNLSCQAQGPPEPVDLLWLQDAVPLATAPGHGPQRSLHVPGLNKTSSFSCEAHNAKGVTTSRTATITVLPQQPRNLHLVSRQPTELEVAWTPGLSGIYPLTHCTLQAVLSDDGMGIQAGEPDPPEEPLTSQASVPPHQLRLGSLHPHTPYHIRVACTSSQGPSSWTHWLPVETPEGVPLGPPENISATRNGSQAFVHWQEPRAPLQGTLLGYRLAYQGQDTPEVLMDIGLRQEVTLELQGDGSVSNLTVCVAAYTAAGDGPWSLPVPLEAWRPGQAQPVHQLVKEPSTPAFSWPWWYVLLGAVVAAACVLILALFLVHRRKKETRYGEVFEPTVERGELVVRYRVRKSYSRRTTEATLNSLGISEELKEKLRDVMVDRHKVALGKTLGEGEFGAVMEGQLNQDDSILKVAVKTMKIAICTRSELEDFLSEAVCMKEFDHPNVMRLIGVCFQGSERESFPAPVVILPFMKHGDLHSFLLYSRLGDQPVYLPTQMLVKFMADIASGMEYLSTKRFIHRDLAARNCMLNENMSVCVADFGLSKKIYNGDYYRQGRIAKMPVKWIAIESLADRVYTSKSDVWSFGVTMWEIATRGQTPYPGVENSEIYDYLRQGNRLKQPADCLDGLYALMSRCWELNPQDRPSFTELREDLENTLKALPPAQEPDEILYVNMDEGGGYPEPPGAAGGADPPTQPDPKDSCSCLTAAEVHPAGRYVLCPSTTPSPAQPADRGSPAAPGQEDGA
Method in brief: (§1)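 IC50 reflects the drop in TR-FRET between Eu anti-phosphotyrosine antibody and labelled peptide after a 60-minute room-temperature reaction. Buffer was 50 mM HEPES pH 7.5 with 10 mM MgCl2, 1 mM EGTA, 0.01% Brij 35 and 1 mM DTT, with ATP at Km per enzyme and EDTA quench.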

[2] = biological target: T2, MERTK (Homo sapiens, UniProt Q12866); experiment: TR-FRET kinase activity assay, MERTK; format: biochemical; conditions: for IC50: TR-FRET activity assay, ATP at Km, 60 minutes, read-out: Mer IC50
T2 sequence (Q12866 21-999): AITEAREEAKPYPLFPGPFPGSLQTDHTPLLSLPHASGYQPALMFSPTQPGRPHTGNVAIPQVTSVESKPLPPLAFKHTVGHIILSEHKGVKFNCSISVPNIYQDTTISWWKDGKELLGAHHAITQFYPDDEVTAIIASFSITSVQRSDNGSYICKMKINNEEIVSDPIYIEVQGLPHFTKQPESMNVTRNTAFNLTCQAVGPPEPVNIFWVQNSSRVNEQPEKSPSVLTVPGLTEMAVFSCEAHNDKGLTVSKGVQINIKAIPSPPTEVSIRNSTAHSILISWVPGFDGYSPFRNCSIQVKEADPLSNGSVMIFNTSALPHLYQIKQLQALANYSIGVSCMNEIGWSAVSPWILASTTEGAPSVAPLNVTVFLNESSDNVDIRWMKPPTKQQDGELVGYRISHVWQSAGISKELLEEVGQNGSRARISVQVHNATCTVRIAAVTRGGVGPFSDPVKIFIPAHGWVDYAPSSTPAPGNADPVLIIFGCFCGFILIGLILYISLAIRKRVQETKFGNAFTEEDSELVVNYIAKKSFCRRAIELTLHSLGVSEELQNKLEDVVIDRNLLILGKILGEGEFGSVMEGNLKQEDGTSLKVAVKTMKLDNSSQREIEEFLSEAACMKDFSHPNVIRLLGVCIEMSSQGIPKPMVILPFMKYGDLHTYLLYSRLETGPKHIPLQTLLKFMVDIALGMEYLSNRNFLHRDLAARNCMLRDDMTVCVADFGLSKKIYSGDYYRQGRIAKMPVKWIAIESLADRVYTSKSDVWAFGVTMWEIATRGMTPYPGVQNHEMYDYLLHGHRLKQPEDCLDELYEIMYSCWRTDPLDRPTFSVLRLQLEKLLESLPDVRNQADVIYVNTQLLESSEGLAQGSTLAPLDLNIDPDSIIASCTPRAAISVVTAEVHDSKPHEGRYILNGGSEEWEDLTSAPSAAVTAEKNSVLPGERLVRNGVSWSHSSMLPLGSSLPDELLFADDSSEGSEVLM
Method in brief: as §1

[3] = ratio calculated as FLT3 IC50/Mer IC50
[4] = ratio of Mer to FLT3: FLT3 IC50/Mer IC50

SMILES	IC50 [1] [nM]	IC50 [2] [nM]	FLT3/Mer ratio (FLT3 IC50/Mer IC50) [2, 3]	FLT3/Mer ratio (FLT3 IC50/Mer IC50) [2, 4]
CCCCC[C@H](C)Nc1ncc2c([C@H]3CC[C@@H](C(=O)N4CCN(C)CC4)CC3)cc([C@H]3CC[C@H](O)CC3)n2n1 [Compound 127]	≤ 100	≤ 100	–	+++ (“+++” represents a ratio of >100)
COC[C@H](C)Nc1ncc2c(-c3cnn(C(C)(C)C(=O)N4CCN(C)CC4)c3)cc([C@H]3CC[C@H](O)CC3)n2n1 [Compound 466]	≤ 100	≤ 100	+++ (“+++” represents a ratio of >100)	–
COC[C@H](C)Nc1ncc2c(C3=CCN(C(=O)OC(C)(C)C)CC3)cc([C@H]3CC[C@H](O)CC3)n2n1 [Compound 425]	≤ 100	≤ 100	+++ (“+++” represents a ratio of >100)	–
CCC1(Nc2ncc3c(-c4ccc(CN5CCN(C)CC5)cc4)cc([C@H]4CC[C@H](O)CC4)n3n2)CCC1 [Compound 126]	100 to 1000	≤ 100	–	++ (“++” represents a ratio of between 10 and 100)
COC[C@H](C)Nc1ncc2c(-c3ccnc(N4CCC5(CCO5)CC4)c3)cc([C@H]3CC[C@H](O)CC3)n2n1 [Compound 430]	≤ 100	≤ 100	+++ (“+++” represents a ratio of >100)	–
COC[C@H](C)Nc1ncc2c(C3=C[C@H]4CC[C@@H](C3)N4C)cc([C@H]3CC[C@H](O)CC3)n2n1 [Compound 494]	≤ 100	≤ 100	+++ (“+++” represents a ratio of >100)	–
COC[C@H](C)Nc1ncc2c(C3=C[C@H]4CC[C@@H](C3)N4CC(F)(F)F)cc([C@H]3CC[C@H](O)CC3)n2n1 [Compound 492]	≤ 100	≤ 100	+++ (“+++” represents a ratio of >100)	–
COC[C@H](C)Nc1ncc2c(-c3cnn(C4COC4)c3)cc(-c3ccc(O)nc3)n2n1 [Compound 501]	100 to 1000	≤ 100	++ (“++” represents a ratio of between 10 and 100)	–
C[C@@H](COC(F)F)Nc1ncc2c(-c3cnn(CCS(C)(=O)=O)c3)cc([C@H]3CC[C@H](O)CC3)n2n1 [Compound 436]	≤ 100	≤ 100	+++ (“+++” represents a ratio of >100)	–

Further lines, with some results ahead:

IC50 [1] [nM]	IC50 [2] [nM]	FLT3/Mer ratio (FLT3 IC50/Mer IC50) [2, 3]	SMILES	FLT3/Mer ratio (FLT3 IC50/Mer IC50) [2, 4]
≤ 100	≤ 100	+++ (“+++” represents a ratio of >100)	COC[C@H](C)Nc1ncc2c(-c3cccc(C4CCc5nc(C)[nH]c5C4)c3)cc([C@H]3CC[C@H](O)CC3)n2n1 (stereo partly drawn) [Compound 498]	–
≤ 100	≤ 100	+++ (“+++” represents a ratio of >100)	COC[C@H](C)Nc1ncc2c(-c3ccnc(F)c3)cc([C@H]3CC[C@H](O)CC3)n2n1 [Compound 505]	–
≤ 100	≤ 100	+++ (“+++” represents a ratio of >100)	COC[C@H](C)Nc1ncc2c(-c3cnn(C(C)(C)C(=O)C4CCc5sc(C)nc5C4)c3)cc([C@H]3CC[C@H](O)CC3)n2n1 (stereo partly drawn) [Compound 496]	–
≤ 100	≤ 100	+++ (“+++” represents a ratio of >100)	COC[C@H](C)Nc1ncc2c(-c3cnn(CC(C)(C)N4CCOCC4)c3)cc([C@H]3CC[C@H](O)CC3)n2n1 [Compound 507]	–
